19 molecules from ChEMBL document CHEMBL6178023 (J Med Chem, 2025) can be followed below.

≈ marks a conversion by molar mass, not a printed value. Calls of active or inactive are those of the source. No cut-off for these calls is given here.

In general, solubility (kinetic) refers to the concentration staying in solution when a stock, usually in DMSO, is diluted into the medium. In general, IC50 refers to the concentration that gives 50% inhibition. High values mean weaker potency in that assay, low ones greater potency in that assay. In general, inhibition refers to the change of the read-out against control, counted positive when it falls.

The test system of data set [1] is Chikungunya virus. The data set can be described thus: Antiviral activity against CHIKV 181/25 expressing nLuc-capsid gene infected in human MRC5 cells assessed as reduction in viral replication preincubated with cells for 1 hr followed by viral infection measured after 6 hrs post-infection by Nano-glo luciferase assay. In kind it is functional, organism-based.

A short description of data set [2]: Aqueous solubility of compound in PBS at pH 7.4. In kind it is physicochemical.
In the next data set the test system is MRC5. Put plainly: Cytotoxicity against human MRC5 cells at 10 to 40 uM by Cell Titer Glo assay. The note with it: mrc5, 40 µM, dose 10-40 µM. In kind it is toxicity, cell-based. (In general: Cellular ATP, detected with luciferase, serves as a proxy for viable cell number.)
In another data set the target is Polyprotein P1234 (Chikungunya virus (strain S27-African prototype) (CHIKV), UniProt Q8JUX6). Put plainly: Inhibition of N-terminal 6-His/SUMO-tagged CHIKV 181/25 nsP2 extracted from Escherichia coli Rosetta 2 preincubated for 30 mins followed by ATP addition measured after 1 hr by ADP-Glo assay. (In ADP-Glo the light output rises with the ADP produced.)
Data set [3] has as its system Chikungunya virus. The data set can be described thus: Inhibition of N-terminal 6-His/SUMO-tagged CHIKV 181/25 nsP2 extracted from Escherichia coli Rosetta 2 at 200 uM preincubated for 30 mins followed by ATP addition measured after 1 hr by ADP-Glo assay relative to control. Particulars: time 90.0 min.
[4] abbreviates: 181/25, MRC5, read-out: pEC50 (converted).

Chain of Polyprotein P1234 (Q8JUX6 536-1333 limits assumed): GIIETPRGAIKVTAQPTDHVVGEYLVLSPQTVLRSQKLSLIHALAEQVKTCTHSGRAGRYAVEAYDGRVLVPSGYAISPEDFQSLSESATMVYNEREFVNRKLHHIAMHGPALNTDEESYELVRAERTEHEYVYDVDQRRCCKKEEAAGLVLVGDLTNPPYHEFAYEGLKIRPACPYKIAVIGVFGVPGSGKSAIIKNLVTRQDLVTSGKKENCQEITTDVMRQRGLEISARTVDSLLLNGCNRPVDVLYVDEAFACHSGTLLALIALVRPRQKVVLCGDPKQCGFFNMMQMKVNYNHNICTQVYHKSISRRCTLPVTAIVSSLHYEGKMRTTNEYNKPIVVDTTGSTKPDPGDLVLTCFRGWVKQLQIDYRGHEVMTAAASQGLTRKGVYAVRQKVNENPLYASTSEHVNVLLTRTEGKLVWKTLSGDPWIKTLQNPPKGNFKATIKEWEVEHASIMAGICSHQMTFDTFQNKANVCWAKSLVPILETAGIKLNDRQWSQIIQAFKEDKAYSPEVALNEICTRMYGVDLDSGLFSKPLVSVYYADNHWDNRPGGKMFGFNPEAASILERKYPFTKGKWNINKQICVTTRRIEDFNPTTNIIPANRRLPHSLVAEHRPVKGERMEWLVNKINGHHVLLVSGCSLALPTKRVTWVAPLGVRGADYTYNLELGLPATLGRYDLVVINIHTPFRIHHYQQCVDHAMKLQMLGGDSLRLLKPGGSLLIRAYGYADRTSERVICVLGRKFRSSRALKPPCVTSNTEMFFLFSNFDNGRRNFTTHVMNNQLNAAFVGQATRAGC

Turning to `CCN(C)S(=O)(=O)NCC1CCOC2(CCN(C(=O)C3(c4ccccc4)CCCC3)CC2)C1` (configuration not stated), in the data set with Chikungunya virus [1] (setting [4]), the EC50 is 3.98 µM. In data set [2], this molecule displayed a solubility (kinetic) of 160 µM (≈ 76.4 µg/mL). Moreover, the Activity result in the data set on MRC5 is given as “Non-toxic”. On Polyprotein P1234, 15.8 µM corresponded to half-maximal inhibition (IC50).
With `COc1ccccc1NC(=O)NCC1CCOC2(CCN(C(=O)C3(c4ccccc4)CCCC3)CC2)C1` (configuration not stated), the inhibition result in the data set on Chikungunya virus [3] is “inactive”. Further, in the data set on Chikungunya virus [1] (setting [4]), the EC50 is 3.98 µM. Further, in data set [2], the solubility (kinetic) was < 10 µM. Moreover, the Activity result with MRC5 is recorded as “Non-toxic”.
For the molecule `O=C(NCC1CCOC2(CCN(C(=O)C3(c4ccccc4)CCCC3)CC2)C1)C1CCCCC1` (configuration not stated), the EC50 in the data set with Chikungunya virus [1] (setting [4]) is 2.51 µM. The molecule further came in with a kinetic solubility in data set [2] of 130 µM (≈ 60.7 µg/mL). Also, the Activity entry in the data set with MRC5 is listed as “Non-toxic”. Besides, half-maximal inhibition against Polyprotein P1234 (IC50) required 31.6 µM.
Turning to `CCCCCC(=O)NCC1CCOC2(CCN(C(=O)C3(c4ccccc4)CCCC3)CC2)C1` (configuration not stated), the EC50 in the data set on Chikungunya virus [1] (setting [4]) was 2 µM. The solubility (kinetic) in data set [2] is 60 µM (≈ 27.3 µg/mL). Also, the Activity entry with MRC5 is given as “Non-toxic”. Moreover, at Polyprotein P1234, it took 6.31 µM to reach half-maximal inhibition (IC50).
Regarding `COc1cccc(C2(C(=O)N3CCC4(CC3)CC(CNS(=O)(=O)N(C)C)CCO4)CCCC2)c1` (configuration not stated), the inhibition in the data set with Chikungunya virus [3] came out at 80%. Further, in the data set on Chikungunya virus [1] (setting [4]), the EC50 was 6.31 µM. In addition, the Activity entry in the data set on MRC5 is “Non-toxic”. The IC50 against Polyprotein P1234 was > 39.8 µM.
For `O=C(N1CCC2(CC1)CC(CNCc1ccccc1)CCO2)C1(c2ccccc2)CCCC1` (configuration not stated), the EC50 in the data set on Chikungunya virus [1] (setting [4]) was 10 µM. In data set [2], this molecule displayed a kinetic solubility of 180 µM (≈ 80.4 µg/mL). In addition, the Activity entry in the data set with MRC5 is listed as “Non-toxic”. Further, the concentration for half-maximal inhibition (IC50) on Polyprotein P1234 is > 39.8 µM.
The corresponding values for `O=C(N1CCC2(CC1)CC(CNS(=O)(=O)CCCCCl)CCO2)C1(c2ccccc2)CCCC1` (configuration not stated) are 1.26 µM, 60 µM (≈ 30.7 µg/mL), “Non-toxic” and 10 µM.
For `O=C(NCC1CCOC2(CCN(C(=O)C3(c4ccccc4)CCCC3)CC2)C1)c1ccccc1` (configuration not stated), in that order: 2.51 µM, 70 µM (≈ 32.2 µg/mL), “Non-toxic” and 15.8 µM.
For the molecule `O=c1nc(NO)ccn1[C@@H]1O[C@H](CO)[C@@H](O)[C@H]1O` [N-HYDROXYCYTIDINE], the EC50 in the data set on Chikungunya virus [1] (181/25, MRC5, read-out: EC50) stood at 1.2 µM.
Regarding `O=C(N1CCC2(CC1)CC(CNS(=O)(=O)CCCCl)CCO2)C1(c2ccccc2)CCCC1` (configuration not stated), in the data set on Chikungunya virus [1] (setting [4]), the EC50 was 0.631 µM. Moreover, the solubility (kinetic) in data set [2] amounted to 100 µM (≈ 49.7 µg/mL). Further, the Activity entry in the data set on MRC5 is reported as “Non-toxic”. The molecule further had an IC50 at Polyprotein P1234 of 2 µM.
For `CN(C)S(=O)(=O)N(C)CC1CCOC2(CCN(C(=O)C3(c4ccccc4)CCCC3)CC2)C1` (configuration not stated), the EC50 with Chikungunya virus [1] (setting [4]) is 1.58 µM. Besides, in data set [2], the kinetic solubility is 160 µM (≈ 76.4 µg/mL). The Activity result with MRC5 is recorded as “Non-toxic”. In addition, inhibition at Polyprotein P1234 was half-maximal at 5.01 µM (IC50).
As for `O=C(NCC1CCOC2(CCN(C(=O)C3(c4ccccc4)CCCC3)CC2)C1)Nc1ccccc1` (configuration not stated), the EC50 in the data set on Chikungunya virus [1] (setting [4]) was 1.26 µM. This molecule displayed a kinetic solubility in data set [2] of 10 µM (≈ 4.76 µg/mL). In addition, the Activity result in the data set with MRC5 is reported as “Non-toxic”. For the same molecule, half-maximal inhibition at Polyprotein P1234 (IC50) required 15.8 µM.
On to `CN(C)S(=O)(=O)NCC1CCOC2(CCN(C(=O)C3(c4cccc(C(F)(F)F)c4)CCCC3)CC2)C1` (configuration not stated), for which the inhibition with Chikungunya virus [3] was found to be 40%. For the same molecule, the EC50 in the data set with Chikungunya virus [1] (setting [4]) was 100 µM. The Activity entry with MRC5 is reported as “Non-toxic”. The IC50 against Polyprotein P1234 was > 39.8 µM.
Consider `CN(CC1CCOC2(CCN(C(=O)C3(c4ccccc4)CCCC3)CC2)C1)S(=O)(=O)CCCCl` (configuration not stated), for which, in the data set with Chikungunya virus [1] (setting [4]), the EC50 was 0.398 µM. Besides, the kinetic solubility in data set [2] was 50 µM (≈ 25.6 µg/mL). Also, in the data set with MRC5, the Activity result is on record as “Non-toxic”. The molecule also had an IC50 on Polyprotein P1234 of 1 µM.
For `CN(CC1CCOC2(CCN(C(=O)C3(c4ccccc4)CCCC3)CC2)C1)S(C)(=O)=O` (configuration not stated), in that order: 1.26 µM, 180 µM (≈ 80.8 µg/mL), “Non-toxic” and 3.16 µM.
On to `CS(=O)(=O)NCC1CCOC2(CCN(C(=O)C3(c4cccc(Cl)c4)CCCC3)CC2)C1` (configuration not stated), for which the EC50 in the data set with Chikungunya virus [1] (setting [4]) is 2.51 µM. Besides, the Activity entry in the data set with MRC5 was “Non-toxic”. The molecule also gave a concentration for half-maximal inhibition (IC50) at Polyprotein P1234 of 20 µM.
The molecule `Cc1cccc(C2(C(=O)N3CCC4(CC3)CC(CNS(=O)(=O)N(C)C)CCO4)CCCC2)c1` (configuration not stated) displayed an inhibition in the data set with Chikungunya virus [3] of 90%. In addition, the EC50 with Chikungunya virus [1] (setting [4]) was 3.98 µM. Also, the Activity result in the data set with MRC5 is “Non-toxic”. Besides, the concentration for half-maximal inhibition (IC50) at Polyprotein P1234 is > 39.8 µM.
In the case of `O=C(N1CCC2(CC1)CC(CNCC(F)(F)F)CCO2)C1(c2ccccc2)CCCC1` (configuration not stated), the EC50 in the data set with Chikungunya virus [1] (setting [4]) is 12.6 µM. The molecule further displayed a kinetic solubility in data set [2] of 170 µM (≈ 74.6 µg/mL). Further, in the data set on MRC5, the Activity entry is given as “Non-toxic”. Moreover, the 50% inhibitory concentration (IC50) against Polyprotein P1234 is > 39.8 µM.
For `O=C(N1CCC2(CC1)CC(CN1CCCCS1(=O)=O)CCO2)C1(c2ccccc2F)CCCC1` (configuration not stated), in that order: 0.251 µM, 190 µM (≈ 93.6 µg/mL), “Non-toxic” and 1 µM.
